Measurements reported in publication PMC6941823, “A dispensable paralog of succinate dehydrogenase subunit C mediates standing resistance towards a subclass of SDHI fungicides in Zymoseptoria tritici” (PLoS Pathogens, 2019).
Like-named read-outs stand apart in the source and are kept apart here.

Legend:
[1] = system: Zymoseptoria tritici field and genetically modified strains; test: Liquid culture assay for fungicide sensitivity determination; format: cell-based; conditions: liquid culture sensitivity, read-out: EC50 (nM) Mean
Protocol: Sensitivity towards commercial fungicides was determined for a set of 99 SHA-SDHI-naïve Z. tritici field isolates sampled in Europe between 2006 and 2009. The EC50 of these isolates was determined in liquid growth assays and the data obtained compared for each possible pair of SDHI fungicides (cross-resistance (XR) plots, Fig 1). […] Comparative succinate-quinone reductase (SQR) enzyme inhibition tests were performed with mitochondria extracted from a panel of SHA-SDHIs tolerant and sensitive isolates.
In order to characterize in more depth the mechanisms driving sensitivity differences across the isolates, a subset of eight isolates carrying the ZtSDHC3 gene was analyzed for their sensitivity to SDHIs, alt-SDHC expression and splicing patterns. Liquid culture growth sensitivity tests were performed to determine EC50s for this set of isolates towards a wide range of commercial and research SDHIs (S5 Table).
Pre-culture of the inoculum and fungicide sensitivity tests were performed following previously described procedures. Different ranges of inhibitor concentrations were used for population monitoring and for the detailed phenotyping of a selected set of individual field isolates and genetically modified strains. For fungicide sensitivity monitoring of European field populations, final inhibitors concentrations were between 100 mg.L^-1 and 0.0001 mg.L^-1 with uniform 10x dilution steps (7 inhibitor concentrations + DMSO control). For refined sensitivity analysis of a smaller panel of isolates final inhibitor concentrations ranged between 0.5 mM and 0.47 nM with uniform 4x dilution factor steps (11 inhibitor concentrations+ DMSO control).

[2] = target: SQR (SDHC) of D024 SDHC3 KO mitochondria (Zymoseptoria tritici, UniProt F9X9V6+F9XH52+O42772); test: Succinate-quinone (SQR) SDHI sensitivity assay on purified mitochondria, 06STD024 SDHC3 KO; format: biochemical; conditions: for RF (resistance factor), D024 SDHC3 KO (SDHC): IC50 ratio compared to IPO323 values; for IC50: mitochondria of 06STD024 ZtSDHC3 deletion mutant, mean of three ± SD
Sequence of SQR (SDHC) of D024 SDHC3 KO mitochondria (F9XH52 44-187): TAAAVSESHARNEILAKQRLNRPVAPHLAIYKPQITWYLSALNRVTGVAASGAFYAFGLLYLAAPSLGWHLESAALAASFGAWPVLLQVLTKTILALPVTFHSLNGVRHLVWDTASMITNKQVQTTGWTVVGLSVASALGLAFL
Sequence of SQR (SDHC) of D024 SDHC3 KO mitochondria (O42772 19-297): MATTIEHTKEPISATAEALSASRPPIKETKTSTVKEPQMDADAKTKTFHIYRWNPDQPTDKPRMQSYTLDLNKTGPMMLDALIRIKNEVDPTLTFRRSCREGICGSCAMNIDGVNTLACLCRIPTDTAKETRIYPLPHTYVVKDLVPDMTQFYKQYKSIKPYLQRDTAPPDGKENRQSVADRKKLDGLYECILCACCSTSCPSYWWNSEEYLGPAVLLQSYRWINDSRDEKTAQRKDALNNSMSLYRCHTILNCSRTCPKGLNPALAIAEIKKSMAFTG
Sequence of SQR (SDHC) of D024 SDHC3 KO mitochondria (F9X9V6 1-193): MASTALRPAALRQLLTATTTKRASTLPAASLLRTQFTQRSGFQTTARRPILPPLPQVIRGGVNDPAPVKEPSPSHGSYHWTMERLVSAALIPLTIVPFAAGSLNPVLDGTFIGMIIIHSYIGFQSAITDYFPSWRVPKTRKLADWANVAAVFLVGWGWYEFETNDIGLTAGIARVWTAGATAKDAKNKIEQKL
Sequence of SQR (SDHC) of D024 SDHC3 KO mitochondria (F9WWR1 29-643 partner): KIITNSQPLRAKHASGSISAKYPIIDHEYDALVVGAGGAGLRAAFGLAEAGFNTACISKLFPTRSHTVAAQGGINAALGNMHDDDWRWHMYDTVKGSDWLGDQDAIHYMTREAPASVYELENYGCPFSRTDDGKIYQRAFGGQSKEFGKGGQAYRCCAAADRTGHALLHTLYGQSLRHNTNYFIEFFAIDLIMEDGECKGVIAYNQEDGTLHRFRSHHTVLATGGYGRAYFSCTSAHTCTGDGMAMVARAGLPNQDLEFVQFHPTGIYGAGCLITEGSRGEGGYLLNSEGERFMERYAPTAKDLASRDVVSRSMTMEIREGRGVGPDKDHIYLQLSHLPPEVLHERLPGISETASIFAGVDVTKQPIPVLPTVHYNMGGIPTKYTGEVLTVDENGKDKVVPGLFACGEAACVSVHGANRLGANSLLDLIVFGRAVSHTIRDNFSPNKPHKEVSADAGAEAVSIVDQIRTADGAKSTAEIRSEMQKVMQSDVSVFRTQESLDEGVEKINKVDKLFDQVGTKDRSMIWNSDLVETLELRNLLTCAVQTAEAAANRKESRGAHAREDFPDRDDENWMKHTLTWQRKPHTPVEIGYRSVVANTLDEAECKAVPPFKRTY
Protocol: (§1) Succinate-ubiquinone oxidoreductase (SQR) inhibition assays were performed on mitochondrial extracts from a panel of strains that were (i) either carrying a unique C-subunit encoding gene (ZtSDHC1, ZtSDHC1_A84I or Zt-SDHC3), or (ii) carrying two C-subunit encoding genes ZtSDHC1 and ZtSDHC3 (Table 1).
(§2) Biomass production, mitochondrial extraction and purification were performed as described in [14]. Succinate: ubiquinone/DCPIP sensitivity tests were performed as described in [14] with minor modification. The different mitochondrial suspensions were adjusted to similar initial velocity (1 OD595nm hour^-1) and inhibitor concentrations ranged between 0.047nM and 50μM with uniform 4x dilution steps (11 concentrations + DMSO control). Calculated absorbance slopes (OD/min) were used for IC50 calculations using GraphPad Prism 6.07 software non-linear curve fitting against log inhibitor concentrations.

[3] = target: SQR (SDHC / altC) of IPO323 pTet::SDHC3 transformant, repressed (Zymoseptoria tritici, UniProt A0A1X7RQW2+F9X9V6+F9XH52+O42772); test: Succinate-quinone (SQR) SDHI sensitivity assay on purified mitochondria, IPO323 pTet::SDHC3 repressed; format: biochemical; conditions: for RF (resistance factor), pTet Repressed (SDHC / altC): IC50 ratio compared to IPO323 values; for IC50: IPO323 pTet::SDHC3 transformant grown in presence of 30 mg.L^-1 doxycycline, mean of three ± SD
Protocol: as §1
(§3) Biomass production, mitochondrial extraction and purification were performed as described in [14]. Succinate: ubiquinone/DCPIP sensitivity tests were performed as described in [14] with minor modification.

[4] = target: C_A84I-SQR (SDHC_A84I), IPO323_Flu21 mitochondria (Zymoseptoria tritici, UniProt F9X9V6+F9XH52+O42772, A84I); test: Succinate-quinone (SQR) SDHI sensitivity assay on purified mitochondria, IPO323_Flu21; format: biochemical; conditions: for RF (resistance factor), IPO323_Flu21 (SDHC_A84I): IC50 ratio compared to IPO323 values; for IC50: mitochondria of UV mutant IPO323_Flu21, mean of three ± SD
Protocol: as §1, §2

[5] = target: altC-SQR (altC) of D024 SDHC1 KO mitochondria (Zymoseptoria tritici, UniProt A0A1X7RQW2+F9X9V6+O42772); test: Succinate-quinone (SQR) SDHI sensitivity assay on purified mitochondria, 06STD024 SDHC1 KO; format: biochemical; conditions: for RF (resistance factor), D024 SDHC1 KO (altC): IC50 ratio compared to IPO323 values; for IC50: mitochondria of 06STD024 ZtSDHC1 deletion mutant (pure altC-SQR), mean of three ± SD
Sequence of altC-SQR (altC) of D024 SDHC1 KO mitochondria (A0A1X7RQW2 36-181): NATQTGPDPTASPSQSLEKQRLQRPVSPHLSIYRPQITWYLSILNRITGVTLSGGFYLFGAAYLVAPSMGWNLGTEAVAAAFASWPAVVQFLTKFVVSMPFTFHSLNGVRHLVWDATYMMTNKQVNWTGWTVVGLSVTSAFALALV
Sequence of altC-SQR (altC) of D024 SDHC1 KO mitochondria (O42772 20-297): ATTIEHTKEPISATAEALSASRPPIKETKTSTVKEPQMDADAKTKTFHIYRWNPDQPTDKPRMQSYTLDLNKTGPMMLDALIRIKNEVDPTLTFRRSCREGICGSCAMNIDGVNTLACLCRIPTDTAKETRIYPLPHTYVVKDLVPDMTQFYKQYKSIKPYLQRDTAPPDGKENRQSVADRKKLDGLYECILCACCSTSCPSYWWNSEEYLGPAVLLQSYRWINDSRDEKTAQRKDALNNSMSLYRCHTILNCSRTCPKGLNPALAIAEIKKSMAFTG
Sequence of altC-SQR (altC) of D024 SDHC1 KO mitochondria (F9X9V6 1-193): as the sequence (F9X9V6 1-193) above
Sequence of altC-SQR (altC) of D024 SDHC1 KO mitochondria (F9WWR1 41-643 partner): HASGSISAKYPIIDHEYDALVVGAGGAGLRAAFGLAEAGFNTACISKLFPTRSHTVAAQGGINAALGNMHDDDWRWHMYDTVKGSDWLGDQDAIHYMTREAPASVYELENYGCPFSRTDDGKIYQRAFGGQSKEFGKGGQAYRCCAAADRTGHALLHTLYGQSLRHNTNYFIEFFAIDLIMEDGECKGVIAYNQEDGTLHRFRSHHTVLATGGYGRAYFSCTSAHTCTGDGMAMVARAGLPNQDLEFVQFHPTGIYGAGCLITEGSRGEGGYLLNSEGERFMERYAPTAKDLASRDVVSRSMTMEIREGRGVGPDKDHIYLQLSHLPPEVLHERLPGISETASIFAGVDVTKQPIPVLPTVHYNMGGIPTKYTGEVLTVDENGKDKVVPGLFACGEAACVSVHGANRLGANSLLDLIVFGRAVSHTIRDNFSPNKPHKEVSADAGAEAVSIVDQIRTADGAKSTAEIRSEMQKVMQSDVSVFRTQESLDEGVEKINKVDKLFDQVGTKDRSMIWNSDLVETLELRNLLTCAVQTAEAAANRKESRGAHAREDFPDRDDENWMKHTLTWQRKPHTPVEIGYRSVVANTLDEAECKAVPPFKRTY
Protocol: as §1, §3

[6] = target: WT-SQR (SDHC), IPO323 mitochondria (Zymoseptoria tritici, UniProt F9X9V6+F9XH52+O42772); test: Succinate-quinone (SQR) SDHI sensitivity assay on purified mitochondria, IPO323; format: biochemical; conditions: mitochondria of IPO323; mean of three determinations ± SD; read-out: Succinate-quinone IC50, IPO323 (SDHC)
Protocol: as §1, §2

[7] = system: SQR (SDHC / altC) of IPO323 pTet::SDHC3 transformant, induced; test: Succinate-quinone (SQR) SDHI sensitivity assay on purified mitochondria, IPO323 pTet::SDHC3 induced; format: biochemical, Zymoseptoria tritici; conditions: for RF (resistance factor), pTet Induced (SDHC / altC): IC50 ratio compared to IPO323 values; for IC50: IPO323 pTet::SDHC3 transformant grown in the absence of doxycycline, mean of three ± SD
Protocol: as §1, §3

[8] = target: SQR of 06STD024 (SDHC / altC) mitochondria (Zymoseptoria tritici, UniProt A0A1X7RQW2+F9X9V6+F9XH52+O42772); test: Succinate-quinone (SQR) SDHI sensitivity assay on purified mitochondria, 06STD024; format: biochemical; conditions: for RF (resistance factor), 06STD024 (SDHC / altC): IC50 ratio compared to IPO323 values; for IC50: mitochondria of field isolate 06STD024, mean of three ± SD
Sequence of SQR of 06STD024 (SDHC / altC) mitochondria (A0A1X7RQW2 36-181): as the sequence (A0A1X7RQW2 36-181) above
Sequence of SQR of 06STD024 (SDHC / altC) mitochondria (O42772 19-297): as the sequence (O42772 19-297) above
Sequence of SQR of 06STD024 (SDHC / altC) mitochondria (F9X9V6 1-193): as the sequence (F9X9V6 1-193) above
Sequence of SQR of 06STD024 (SDHC / altC) mitochondria (F9XH52 44-187): as the sequence (F9XH52 44-187) above
Sequence of SQR of 06STD024 (SDHC / altC) mitochondria (F9WWR1 29-643 partner): as the sequence (F9WWR1 29-643 partner) above
Protocol: as §1, §3

`Cn1cc(C(=O)Nc2cccc3c2[C@@H]2CC[C@H]3C2=C(Cl)Cl)c(C(F)F)n1` (racemic) [Benzovindiflupyr] was tested, and the EC50 ([1]; strain 06STD024) was 17 nM, the EC50 ([1]; strain 07STGB009) was 15 nM and the EC50 ([1]; strain 09STD041) was 54 nM. It also gave an EC50 ([1]; strain 09STD053) of 88 nM, an EC50 ([1]; strain 09STF011) of 96 nM and an EC50 ([1]; strain 09STF037) of 54 nM. The EC50 ([1]; strain 09STF112) was 204 nM, the EC50 ([1]; strain 09STIR20.3) was 147 nM and the EC50 ([1]; strain Flu21 (SDHC1_A84I)) was 927 nM. It also gave an EC50 ([1]; strain IPO323) of 39 nM, an EC50 ([1]; strain IPO94269) of 108 nM and an EC50 ([1]; strain KO_SDHC1_T1) of 59 nM. It also gave an EC50 ([1]; strain KO_SDHC1_T3) of 40 nM, an EC50 ([1]; strain KO_SDHC3_T4) of 93 nM and an EC50 ([1]; strain KO_SDHC3_T13) of 90 nM. For the same compound, the EC50 ([1]; strain pTet::SDHC3_I78A_T1) was 28 nM, the EC50 ([1]; strain pTet::SDHC3_I78A_T5) was 87 nM and the EC50 ([1]; strain pTet::SDHC3_I78A_T15) was 47 nM. It also gave an EC50 ([1]; strain pTet::SDHC3_I78A_T35) of 20 nM, an EC50 ([1]; strain pTet::SDHC3_T1) of 40 nM and an EC50 ([1]; strain pTet::SDHC3_T2) of 44 nM. For the same compound, the EC50 ([1]; strain pTet::SDHC3_T3) was 30 nM, the EC50 ([1]; strain pTet::SDHC3_T7) was 50 nM and the “RF (resistance factor), D024 SDHC3 KO (SDHC)” value [2] was 0.8. The IC50 [2] was 0.0006 ± 0.00011 µM, the “RF (resistance factor), pTet Repressed (SDHC / altC)” value [3] was 0.8 and the IC50 [3] was 0.0005 ± 3e-05 µM. For the same compound, the “RF (resistance factor), IPO323_Flu21 (SDHC_A84I)” value [4] was 1.4, the IC50 [4] was 0.001 ± 0.0002 µM and the “RF (resistance factor), D024 SDHC1 KO (altC)” value [5] was 0.9. The IC50 [5] was 0.0006 ± 5e-05 µM, the IC50 [6] was 0.0007 ± 0.0002 µM and the “RF (resistance factor), pTet Induced (SDHC / altC)” value [7] was 0.8. For the same compound, the IC50 [7] was 0.0005 ± 9e-05 µM, the “RF (resistance factor), 06STD024 (SDHC / altC)” value [8] was 0.8 and the IC50 [8] was 0.0005 ± 0.00017 µM.
`Cn1cc(C(=O)Nc2ccc(F)cc2-c2ccc(Cl)c(Cl)c2)c(C(F)F)n1` [Bixafen] showed an EC50 ([1]; strain 06STD024) of 83.8 nM, an EC50 ([1]; strain 07STGB009) of 102 nM and an EC50 ([1]; strain 09STD041) of 219 nM. It also gave an EC50 ([1]; strain 09STD053) of 102 nM, an EC50 ([1]; strain 09STF011) of 70.1 nM and an EC50 ([1]; strain 09STF037) of 111 nM. The EC50 ([1]; strain 09STF112) was 171 nM, the EC50 ([1]; strain 09STIR20.3) was 204 nM and the EC50 ([1]; strain Flu21 (SDHC1_A84I)) was 959 nM. For the same compound, the EC50 ([1]; strain IPO323) was 106 nM, the EC50 ([1]; strain IPO94269) was 109 nM and the EC50 ([1]; strain KO_SDHC1_T1) was 710 nM. For the same compound, the EC50 ([1]; strain KO_SDHC1_T3) was 447 nM, the EC50 ([1]; strain KO_SDHC3_T4) was 204 nM and the EC50 ([1]; strain KO_SDHC3_T13) was 180 nM. For the same compound, the EC50 ([1]; strain pTet::SDHC3_I78A_T1) was 94.3 nM, the EC50 ([1]; strain pTet::SDHC3_I78A_T5) was 174 nM and the EC50 ([1]; strain pTet::SDHC3_I78A_T15) was 104 nM. For the same compound, the EC50 ([1]; strain pTet::SDHC3_I78A_T35) was 27.7 nM, the EC50 ([1]; strain pTet::SDHC3_T1) was 141 nM and the EC50 ([1]; strain pTet::SDHC3_T2) was 185 nM. The EC50 ([1]; strain pTet::SDHC3_T3) was 120 nM, the EC50 ([1]; strain pTet::SDHC3_T7) was 192 nM and the “RF (resistance factor), D024 SDHC3 KO (SDHC)” value [2] was 1.0. The IC50 [2] was 0.0013 ± 0.0002 µM, the “RF (resistance factor), pTet Repressed (SDHC / altC)” value [3] was 1.1 and the IC50 [3] was 0.0015 ± 0.0006 µM. For the same compound, the “RF (resistance factor), IPO323_Flu21 (SDHC_A84I)” value [4] was 2.3, the IC50 [4] was 0.0032 ± 0.0005 µM and the “RF (resistance factor), D024 SDHC1 KO (altC)” value [5] was 1.5. The IC50 [5] was 0.0021 ± 0.0006 µM, the IC50 [6] was 0.0014 ± 0.0001 µM and the “RF (resistance factor), pTet Induced (SDHC / altC)” value [7] was 1.3. The IC50 [7] was 0.0018 ± 0.0004 µM, the “RF (resistance factor), 06STD024 (SDHC / altC)” value [8] was 1.3 and the IC50 [8] was 0.0018 ± 0.0007 µM.
